We go through twelve molecules from patent publication US7956069B2, “Compounds” (AstraZeneca AB, priority 2006, dated 2011).

The target in this test is T1, hM1 (human Muscarinic receptor subtype 1) (Homo sapiens, UniProt P11229).
T1 construct: expressed in transfected cells; host or cells: CHO cells (Chinese hamster ovary cells, ATCC)
T1 sequence (P11229 1-460): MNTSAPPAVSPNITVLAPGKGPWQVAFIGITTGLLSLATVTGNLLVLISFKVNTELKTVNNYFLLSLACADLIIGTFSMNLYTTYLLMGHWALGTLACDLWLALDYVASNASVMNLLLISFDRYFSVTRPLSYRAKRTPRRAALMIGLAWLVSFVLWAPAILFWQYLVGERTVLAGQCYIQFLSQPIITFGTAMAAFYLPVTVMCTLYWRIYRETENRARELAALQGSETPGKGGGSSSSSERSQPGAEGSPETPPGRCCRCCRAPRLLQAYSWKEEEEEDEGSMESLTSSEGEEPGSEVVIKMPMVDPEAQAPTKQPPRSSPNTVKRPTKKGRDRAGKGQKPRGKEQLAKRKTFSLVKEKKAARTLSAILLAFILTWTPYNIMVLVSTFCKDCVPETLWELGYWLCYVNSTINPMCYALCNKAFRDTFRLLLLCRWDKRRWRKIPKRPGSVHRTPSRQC
Description: Human M1 calcium mobilization FLIPR assay. Conditions: CHO cells expressing hM1, Ca2+ release. In kind it is cell-based. Here is the method: Biological Evaluation Human M1, Rat M1, Human M3 and Human M5 Calcium Mobilization FLIPR™ Assay
The compound activity in the present invention (EC50 or IC50) was measured using a 384 plate-based imaging assay that monitors drug induced intracellular Ca^2+ release in whole cells. Activation of hM1 (human Muscarinic receptor subtype 1, gene bank access NM_000738), rM1 (rat Muscarinic receptor subtype 1, gene bank access NM_080773), hM3 (human Muscarinic receptor subtype 3, gene bank access NM_000740NM_000740) and hM5 (human Muscarinic receptor subtype 5, gene bank access NM_0121258), receptors expressed in CHO cells (Chinese hamster ovary cells, ATCC) was quantified in a Molecular Devices FLIPR II™ instrument as an increase in fluorescent signal. Inhibition of hM3 and hM5 by compounds was determined by the decrease in fluorescent signal in response to 20 nM carbachol activation.
CHO cells were plated in 384-black polylysine coated plate (Costar) at 8000 cells/well/50 μl for 24 hours or 4000 cells/well for 48 hours in a humidified incubator (5% CO2 and 37° C.) in DMEM/F12 medium without selection agent. Prior to the experiment the cell culture medium was removed from the plates by inversion. A loading solution of 30 μl of Hank's balanced salt solution, 10 mM Hepes and 2.5 mM Probenicid at Ph 7.4 (Cat no. 311-520-VL, Wisent) with 2 μM calcium indicator dye (FLUO-3AM, Molecular Probes F14202) was added to each well. Plates were incubated at 37° C. for 60 minutes prior to start the experiment. The incubation was terminated by washing the cells four times in assay buffer, leaving a residual 25 μl buffer per well. Cell plates were then transferred to the FLIPR, ready for compound additions.
The day of experiment, carbachol and compounds were diluted in three-fold concentration range (10 points serial dilution) for addition by FLIPR instrument. For all calcium assays, a baseline reading was taken for 30 seconds followed by the addition of 12.5 μl (25 μl for hM1 and rM1) of compounds, resulting in a total well volume of 37.5 μl (50 μl for hM1 and rM1). Data were collected every 1.6 seconds for 300 seconds. For hM3 and hM5 an additional 12.5 μl of carbachol (20 nM final) was added at 300 seconds. After this addition of carbachol (producing a final volume of 50 μl), the FLIPR continued to collect data every 2 seconds for 240 seconds. The fluorescence emission was read using filter 1 (emission 520-545 nm) by the FLIPR on board CCD camera.
Calcium mobilization output data were calculated as the maximal relative fluorescence unit (RFU) minus the minal value for both compound and agonist reading frame (except for hM1 and rM1 using only the maximal RFU). Data were analyzed using sigmoidal fits of a non-linear curve-fitting program (XLfit version 5.0.6 from ID Business Solutions Limited, Guildford, UK). All EC50 and IC50 values are reported as arithmetic means±standard error of mean of ‘n’ independent experiments.
(In general: Calcium flux is commonly read through the fluorescence of an indicator in the cells.)
`CCOC(=O)N1CCC(N2CCC(N3C(=O)N[C@H]4CCCC[C@@H]43)CC2)CC1`: the EC50 turned out to be 1.1 nM.

As for `CCOC(=O)N1CC[C@H](N2CCC(N3C(=O)N[C@H]4CCCC[C@@H]43)CC2)C1`, the EC50 was determined as 5 nM.

For `COc1ccccc1C(=O)N1CCC(N2CCC(N3C(=O)N[C@@H]4CCCC[C@H]43)CC2)CC1`, the concentration giving a half-maximal response (EC50) was found to be 200 nM.

On to `CC(C)OC(=O)N1CCC(N2CCC(N3C(=O)N[C@H]4CCCC[C@@H]43)CC2)CC1`, for which the EC50 is 4.6 nM.

As for `CC(C)OC(=O)N1CCC(N2CCC(N3C(=O)N[C@@H]4CCCC[C@@H]43)CC2)CC1`, the EC50 was found to be 15 nM.

Turning to `O=C1CCCN1CCC(=O)N1CCC(N2CCC(N3C(=O)N[C@H]4CCCC[C@@H]43)CC2)CC1`, the EC50 amounted to 6.8 nM.

Take `O=C(C1CC1)N1CCC(N2CCC(N3C(=O)N[C@@H]4CCCC[C@H]43)CC2)CC1`: the concentration giving a half-maximal response (EC50) turned out to be 46 nM.

With `O=C1CCCN1CCC(=O)N1CCC(N2CCC(N3C(=O)N[C@@H]4CCCC[C@H]43)CC2)CC1`, the EC50 amounted to 9.2 nM.

As to `O=C(C1CCCC1)N1CCC(N2CCC(N3C(=O)N[C@H]4CCCC[C@@H]43)CC2)CC1`, the EC50 stood at 95 nM.

For `CN1C(=O)N(C2CCN(C3CCN(C(=O)C4CC4)CC3)CC2)[C@H]2CCCC[C@@H]21`, the EC50 came to 94 nM.

With `CC(C)OC(=O)N1CCC(N2CCC(N3C(=O)C[C@H]4CCCC[C@@H]43)CC2)CC1`, the EC50 was found to be 14 nM.

As for `O=C(OCCF)N1CCC(N2CCC(N3C(=O)N[C@H]4CCCC[C@@H]43)CC2)CC1`, the EC50 stood at 2.5 nM.

As a reminder, the EC50 is the midpoint of the concentration-response curve.
